According to paper PMC4979471 (Cell Death Discovery, 2015):
“Also recorded” adds a separate entry of the source. Read-outs that look alike come from different tables or passages of the source.

Key:
[1] = test system: primary mouse bone marrow-derived macrophages (BMDMs); assay: TNF+zVAD-induced necroptosis, CellTiter-Glo; type: cell-based; details: BMDM, read-out: IC50 blocking necroptosis
Protocol: Mouse fibrosarcoma L929 cells (ATCC# CCL-1) and human monocytic U937 cells (ATCC# CRL-1593.2) were cultured in RPMI media supplemented with 10% heat-inactivated FBS, 100 U/ml penicillin and […] streptomycin. BMDM were prepared from C57BL/6 mice by differentiation with 10 ng/ml M-CSF (R&D Systems) for 7 days and cultured in DMEM medium supplemented with 10% heat-inactivated FBS, 100 U/ml penicillin, 100 μg/ml streptomycin and 0.25 μg/ml amphotericin. Primary human neutrophils were isolated from human blood following the standard method comprised of sequential sedimentation in dextran, density centrifugation in Ficoll–Hypaque and lysis of contaminating red blood cells.
(§1) Necroptotic cell death was induced in BMDM, L929 and U937 cells with TNF in the presence of caspase inhibitor zVAD-FMK or QVD-Oph (BMDM: 50 ng/ml TNF+50 μM zVAD; L929: 100 ng/ml TNF+50 μM QVD; U937: 100 ng/ml TNF+25 μM QVD). To evaluate the effect of RIP1 inhibitors, cells were pretreated with compound (dose–response) for 30 min. Induced cell death was evaluated 19–21 h later by measuring cellular ATP levels using CellTiter-Glo Luminescent Cell Viability assay (Promega, Fitchburg, WI, USA). To induce necroptosis in neutrophils, freshly isolated human neutrophils were stimulated with TNF (10 ng/ml), QVD-Oph (50 μM) and SMAC mimetic (100 nM). Induced cell death was evaluated as above.

BMDM = assay: TNF-induced NFκB activation (IκB phosphorylation and degradation, Western blot); type: cell-based, mouse; details: 100 nM
Text: Lysates prepared in 1× Cell Lysis Buffer (Cell Signaling, Danvers, MA, USA) containing protease and phosphatase inhibitors were separated on 4–12% SDS-PAGE and blotted onto nitrocellulose membrane (Invitrogen, Waltham, MA, USA). Blots were probed for IκB (9242, Cell Signaling), phospho-IκB (2859, Cell Signaling), and tubulin as a loading control.

DCAMKL1 = molecular target: T1, DCAMKL1 (Homo sapiens, UniProt O15075); assay: Kinase selectivity, P33-radiolabeled assay; type: biochemical; details: 10 μM ATP
T1 construct: purchased Reaction Biology Corp
T1 sequence (O15075 1-740): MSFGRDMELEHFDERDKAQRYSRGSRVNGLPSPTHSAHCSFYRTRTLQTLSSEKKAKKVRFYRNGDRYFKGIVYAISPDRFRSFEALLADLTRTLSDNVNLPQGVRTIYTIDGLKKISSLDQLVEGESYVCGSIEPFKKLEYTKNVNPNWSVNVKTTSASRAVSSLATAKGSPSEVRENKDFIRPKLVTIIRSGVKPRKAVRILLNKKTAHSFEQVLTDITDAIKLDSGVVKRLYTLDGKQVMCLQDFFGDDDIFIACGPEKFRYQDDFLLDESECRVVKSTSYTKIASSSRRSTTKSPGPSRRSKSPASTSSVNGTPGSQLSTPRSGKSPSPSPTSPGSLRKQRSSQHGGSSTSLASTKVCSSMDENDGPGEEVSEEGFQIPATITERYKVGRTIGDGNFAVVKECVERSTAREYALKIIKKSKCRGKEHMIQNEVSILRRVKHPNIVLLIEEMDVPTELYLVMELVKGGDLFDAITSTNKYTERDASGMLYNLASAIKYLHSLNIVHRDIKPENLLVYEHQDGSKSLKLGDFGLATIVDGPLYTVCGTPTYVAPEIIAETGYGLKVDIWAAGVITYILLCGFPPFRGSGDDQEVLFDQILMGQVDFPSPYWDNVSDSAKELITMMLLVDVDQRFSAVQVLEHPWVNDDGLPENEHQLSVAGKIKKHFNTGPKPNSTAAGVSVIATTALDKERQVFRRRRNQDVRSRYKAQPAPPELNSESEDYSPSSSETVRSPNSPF
Summary of the method: (§2)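 Values show % enzyme activity normalised to DMSO vehicle. They come from one 10 μM compound concentration run twice, at an ATP level of 10 μM.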

SRMS = molecular target: T2, SRMS (Homo sapiens, UniProt Q9H3Y6); assay: Kinase selectivity, P33-radiolabeled assay; type: biochemical; details: 10 μM ATP
T2 construct: purchased Reaction Biology Corp
T2 sequence (Q9H3Y6 whole entry): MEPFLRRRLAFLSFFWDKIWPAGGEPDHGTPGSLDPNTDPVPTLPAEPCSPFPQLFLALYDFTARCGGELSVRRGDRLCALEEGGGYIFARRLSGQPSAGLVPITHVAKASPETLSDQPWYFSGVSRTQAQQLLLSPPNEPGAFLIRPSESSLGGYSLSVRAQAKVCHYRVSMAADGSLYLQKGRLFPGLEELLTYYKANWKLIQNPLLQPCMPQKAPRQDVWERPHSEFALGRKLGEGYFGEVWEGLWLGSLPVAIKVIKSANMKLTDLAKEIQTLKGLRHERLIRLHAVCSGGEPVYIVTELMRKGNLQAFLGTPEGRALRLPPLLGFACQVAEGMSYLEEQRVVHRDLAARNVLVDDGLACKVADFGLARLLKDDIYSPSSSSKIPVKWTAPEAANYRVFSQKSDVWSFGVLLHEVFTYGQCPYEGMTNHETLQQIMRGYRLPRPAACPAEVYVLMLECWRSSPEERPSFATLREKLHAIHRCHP
Summary of the method: as §2

ULK3 = molecular target: T3, ULK3 (Homo sapiens, UniProt Q6PHR2); assay: Kinase selectivity, P33-radiolabeled assay; type: biochemical; details: 10 μM ATP
T3 construct: purchased Reaction Biology Corp
T3 sequence (Q6PHR2 1-472): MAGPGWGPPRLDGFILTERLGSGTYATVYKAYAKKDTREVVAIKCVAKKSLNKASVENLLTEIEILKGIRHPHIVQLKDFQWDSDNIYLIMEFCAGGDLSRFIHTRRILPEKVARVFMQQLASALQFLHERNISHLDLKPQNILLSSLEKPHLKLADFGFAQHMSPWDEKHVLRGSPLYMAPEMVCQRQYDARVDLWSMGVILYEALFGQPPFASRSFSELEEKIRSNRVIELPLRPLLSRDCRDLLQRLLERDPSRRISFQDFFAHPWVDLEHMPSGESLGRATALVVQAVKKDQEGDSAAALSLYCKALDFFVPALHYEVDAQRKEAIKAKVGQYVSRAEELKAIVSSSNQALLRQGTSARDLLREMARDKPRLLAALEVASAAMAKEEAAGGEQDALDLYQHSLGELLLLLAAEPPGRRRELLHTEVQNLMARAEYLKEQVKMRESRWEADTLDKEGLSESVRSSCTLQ
Summary of the method: as §2

339 kinases = test system: 339 kinases
Protocol: The compound was tested at a single dose in duplicate at 10 μM. Reactions were carried out at 10 μM ATP. Data are reported as % enzyme activity (relative to DMSO controls). The full data set is shown in the Supplementary Table I.

[2] = Pharmacokinetic profile after i.p. administration; type: in vivo, C57BL/6 mice; details: i.p., mice
Protocol: Briefly, pharmacokinetic studies were conducted using n=3 animals per group for each compound. […] Blood samples were obtained at various time points following intraperitoneal injection and diluted 1 : 1 with water prior to storage at −80 °C.
Prior to bioanalysis, samples were thawed and each analyte was isolated using a method based on protein precipitation. The resulting supernatant was injected into an LC/MS/MS system optimized for detection of the compound of interest. Data were reported as quantitative drug concentrations as determined by standard calibration curve analysis. Using these optimized conditions, the typical lower limit of quantitation achieved was 1.00 ng/ml for both compounds.

human and murine cells = assay: RIP1-dependent cell death, summary statements; type: cell-based; details: read-out: IC50 inhibiting RIP1-dependent cell death
Protocol: as §1

[3] = read-out: % Enzyme Activity (relative to DMSO controls) AVG
[4] = read-out: % Enzyme Activity (relative to DMSO controls) Data 1
[5] = read-out: % Enzyme Activity (relative to DMSO controls) Data 2

For `CC(C)(C)C(=O)N1N=CC[C@H]1c1ccccc1` [GSK′963], the IC50 [1] was 3 nM, the “effect on TNF-induced NFκB activation” value (BMDM) was “no measurable effects; also recorded: no effect” and the remaining activity at 10 µM (DCAMKL1; [3]) was 92.5%. It also gave a remaining activity at 10 µM (DCAMKL1; [4]) of 96.2%, a remaining activity at 10 µM (DCAMKL1; [5]) of 88.8% and a remaining activity at 10 µM (SRMS; [3]) of 101%. For the same molecule, the remaining activity at 10 µM (SRMS; [4]) was 98.6%, the remaining activity at 10 µM (SRMS; [5]) was 103% and the remaining activity at 10 µM (ULK3; [3]) was 91.6%. For the same molecule, the remaining activity at 10 µM (ULK3; [4]) was 92.2%, the remaining activity at 10 µM (ULK3; [5]) was 90.9% and the “activity against 339 human kinases” value (339 kinases; 10μM, Reaction Biology Corporation) was “does not block the activity of any”. For the same molecule, the “inhibition against all other kinases tested” value (339 kinases; 10 μM, panel of 339 kinases) was < 50%, the apparent half-life [2] was “greater than that for Nec-1” and the IC50 (human and murine cells) was 1 to 4 nM.
